Each structure is given as a SMILES string.

Common to all, as to assay type: cell-based
Assay [1] deals with drug-refractory prostate cancer 3-D organoids. Kind of assay: Re-exposure of drug-refractory prostate cancer 3-D organoids to afatinib and vinblastine. The settings on record: re-exposed to afatinib and vinblastine (100 nM) 5 days after first exposure drug-washout.
Experimental: FIG. 10: Afatinib-refractory and vinblastine-refractory prostate cancer 3-D organoids longitudinally exposed to afatinib and vinblastine (100 nM) 5 days after the first exposure drug-washout.
For assay [2], the system named is prostate cancer patient-derived 3-D organoids. Kind of assay: Exposure of prostate cancer patient-derived 3-D organoids to cytotoxic drugs. The settings on record: 100 nM, 3D conditions with Wnt-stimulator R-spondin, in vitro. As for the experimental part:
FIG. 2. Left: Exposure of prostate cancer patient-derived 3-D organoids, cultured in 3D conditions in the presence of Wnt-stimulator R-spondin, to cytotoxic drugs (100 nM; vinblastine highlighted with red) and validation of vinblastine response in the respective patient-derived xenograft (PDX) model. […] Right: Histological similarities of in-vitro vs. in-vivo drug-refractory malignant foci.
(§1) Viability is determined by methods known in the art. A preferred method to determine cell viability is the measurement of bioluminescence in cells stably transfected with the luciferase expression vector upon addition of the luciferase substrate. An alternative method to determine cell viability is the measurement of fluorescence in cells stably transfected with the expression vectors of fluorescent protein (e.g. GFP or RFP). Alternatively, the cell viability can be measured by ATP-based assays; for example the Cell-Titer Glow assay. Alternatively, the cell viability can be measured by colorimetric assays, for example the MTT assay. Alternatively, cell viability can be measured by conventional or automated microscopy methods as determined by the size and shape of the cancer organoids. Alternatively, cell viability can be measured by assays measuring mitochondrial function such as the BH3 profiling assay. […]

The test system of assay [3] is breast cancer patient-derived 3-D organoids. The experiment in a line: Regrowth of breast cancer patient-derived 3-D organoids after docetaxel washout. The settings on record: 100 nM for 10 days, then 8 weeks after washout. As for the experimental part: FIG. 11: Breast cancer patient-derived 3-D organoids treated with DMSO-control (left) or 100 nM Docetaxel (center) for 10 days, and 8 weeks after docetaxel washout (right).

A further assay concerns MDA-MB-231 3-D organoids. The experiment in a line: Longitudinal exposure of MDA-MB-231 3-D organoids to cytotoxic drugs. The conditions noted are these: 100 nM, 3D culture spheroids. As for the experimental part:
(§2) FIG. 1: Right: Longitudinal exposure of MDA-MB-231 3-D organoids and 2-D cultures to cytotoxic drugs (100 nM). […] Left: H&E staining of day-15 drug-refractory MDA-MB-231 organoids and respective control.
as §1

The test system of another assay is MDA-MB-231 2-D cultures. Kind of assay: Longitudinal exposure of MDA-MB-231 2-D cultures to cytotoxic drugs. The settings on record: 100 nM, 2D culture. How it is done:
as §2, §1

In the case of `CC[C@]1(O)C[C@@H]2CN(CCc3c([nH]c4ccccc34)[C@@](C(=O)OC)(c3cc4c(cc3OC)N(C)[C@H]3[C@@](O)(C(=O)OC)[C@H](OC(C)=O)[C@]5(CC)C=CCN6CC[C@]43[C@@H]65)C2)C1` [vinblastine], the “cross-resistance of organoids refractory to the named drug” value in assay [1] was “cross-resistance”. Besides, the cell viability curve entry in assay [2] is “cell viability curve plateauing”.
`CC(=O)O[C@@]12CO[C@@H]1C[C@H](O)[C@@]1(C)C(=O)[C@H](O)C3=C(C)[C@@H](OC(=O)[C@H](O)[C@@H](NC(=O)OC(C)(C)C)c4ccccc4)C[C@@](O)([C@@H](OC(=O)c4ccccc4)[C@H]21)C3(C)C` [docetaxel]: the “regrowth of drug-refractory organoids after drug washout” value in assay [3] is reported as “ability of drug-refractory organoid to regenerate fully-grown organoids”. Besides, the “cell killing (viability curve)” value in the assay on MDA-MB-231 3-D organoids was “only a fraction of the cells”; in the assay with MDA-MB-231 2-D cultures, “kills virtually all the cells”.
